{"source": "patent US11230570B2", "about": "“Peptide for regulating reactivity to serotonin reuptake inhibitor based antidepressant, and use thereof” (DAEGU GYEONGBUK INSTITUTE OF SCIENCE AND TECHNOLOGY, priority 2018, dated 2022)", "key": {"[1]": {"system": "mice", "assay": "Home cage feeding (HCF) test", "type": "in vivo, mouse", "settings": "for home cage feeding level: control AcGFP1 and PASIP-AcGFP1 mice, chronic fluoxetine", "protocol": "(§1) The test was carried out for 15 minutes by partially changing a conventional method. 24 hours before behavioral testing, all food provided to the home cage was removed. […], a single 1.8-cm square-shaped food pellet was placed on a white filter paper positioned in the center of the test box. The mouse was placed in the corner of an open field, and a stopwatch was immediately operated. The latency to first bite food was recorded. Immediately after the test, the mice were placed in the home cage, and the amount of food intake was measured for 10 minutes."}, "[2]": {"system": "BrdU+ proliferating cells in the subgranular zone of the dentate gyrus", "assay": "BrdU labeling and neurogenic analysis", "type": "in vivo, mouse", "protocol": "1-8. BrdU Labeling and Neurogenic Analysis\nBefore the mice were sacrificed, a BrdU solution (200 mg/kg) was intraperitoneally administered for 3 hours. After transcardial perfusion, brain tissue was fixed with 4% PFA overnight, coronal sections with a 40-μm thickness were collected along the hippocampal rostro-caudal axis using a cryostat (CM3050S, Leica). The sections were processed using a free-floating method. Every sixth section throughout the hippocampus was subjected to BrdU immunohistochemical staining. Afterward, sections were pre-incubated with 1M HCl at 45° C. for 30 minutes to denature DNA, and washed three times with 0.1M PBS for neutralization. Immunohistochemistry was performed with α-BrdU (rat polyclonal, 1:200, Abcam, Cambridge, Mass., USA) and Alexa-Fluor™-conjugated secondary antibodies (1:400, Life Technologies, USA). A tester who was not given information on a slide code counted BrdU-labeled cells in the granule cell layer (GCL) and the subgranular zone (SGZ) of the dentate gyrus (DG) in the total of 12 sections derived from individual mice. The total number of BrdU-labeled cells per section was determined and multiplied by 6 to obtain the total number of cells per dentate gyrus."}, "[3]": {"system": "mice", "assay": "Light and dark box test", "type": "in vivo, mouse", "settings": "PASIP-AcGFP1 mice vs control AcGFP1 154±16; p<0.01", "protocol": "(3) Light and Dark Box Test (LD Box)\nMice were placed in an open field area (40×40×40 cm). A black box was inserted into the open field. The mice were placed into light compartments at the beginning of a session, and allowed to freely move between the compartments for 10 minutes. The time spent in each compartment and the latency to first enter the dark compartment were measured using automated Superflex™ software."}, "[4]": {"system": "mossy cells", "assay": "Electrophysiological recording of hippocampal mossy cells in brain slices", "type": "cell-based, mouse", "settings": "for activity of mossy cells: CNO perfused on slices", "from_the_text": "Electrophysiological Evaluation of Hippocampal Mossy Cells […] To label and visualize mossy cells in hippocampal slices, a recombinant AAV vector (AAV2.EF1α.DIO.AcGFP1-myc) was bilaterally injected into the dentate hilus of the ventral hippocampus in […]. AcGFP1 was selectively expressed in the mossy cells. While recording the electrophysiological evaluation, the morphology, membrane capacitance and electrophysiological properties of the mossy cells were further confirmed. (2) Preparation of Slices 12-15-week male mice were euthanized with CO2. Subsequently, their brains were extracted and placed in an N-Methyl-D-glucamine-containing cutting solution (93 mM NMDG, 2.5 mM KCl, 1.2 mM NaH2PO4, 30 mM NaHCO3, 25 mM glucose, 20 mM HEPES, 5 mM sodium ascorbate, 3 mM sodium pyruvate, 2 mM thiourea, 0.5 mM CaCl2), 10 mM MgSO4. pH 7.4, 295-305 mM mOsm) on cold ice. The brain tissue slices (400-μm thickness) containing the ventral hippocampus were prepared using a VT1000 S Vibratome (Leica Microsystems Inc., Buffalo Grove, Ill., USA). After cutting, slices were allowed to recover in the cutting solution at 37° C. for 15 minutes, and then transferred to a recording solution at room temperature for at least 1 hour before recording of the electrophysiological evaluation. (3) Electrophysiological Recording Electrophysiological recordings were performed as described above. During recording, brain slices were placed in a perfusion chamber attached to a fixed stage of an upright microscope BX51WI (Olympus, Tokyo, Japan), and immersed in a continuously flowing oxygenated recording solution. Components contained in the solution are as follows: 125 mM NaCl, 25 mM NaHCO3, 25 mM glucose, 2.5 mM KCl, 1.25 mM NaH2PO4, 2 mM CaCl2) and 1 mM MgCl2, pH 7.4, 295-305 mM mOsm. Neurons were visualized with a 40× water immersion lens using near infrared (IR) light. Electrophysiological recording was performed using a Multiclamp 700B/Digidata 1440A system (Molecular Devices, Sunnyvale, Calif., USA). Patch electrodes were filled with an internal solution (126 mM K-gluconate, 10 mM KCl, 10 mM HEPES, 10 mM phosphocreatine, 4 mM ATP and 0.3 mM GTP, pH 7.3, 290 mM mOsmol). Whole-cell patch-clamp recordings were used to record spontaneous action potentials of mossy cells in the hippocampal slides, and all recording was performed at 37° C. […] In addition, CNO (1 mM) was perfused on the brain tissue slices to confirm the effect of Gi-DREADD. Experimental data was analyzed by pClamp10 software (Molecular Devices) and GraphPad Prism 6 (GraphPad Software, La Jolla, Calif., USA)."}, "[5]": {"target": "T1, p11/AnxA2/SMARCA3 complex (Homo sapiens, UniProt P07355+P60903)", "T1 construct": "endogenous in cells; host or cells: HEK293 (CRL-1573, ATCC)", "T1 sequence (P60903 whole entry)": "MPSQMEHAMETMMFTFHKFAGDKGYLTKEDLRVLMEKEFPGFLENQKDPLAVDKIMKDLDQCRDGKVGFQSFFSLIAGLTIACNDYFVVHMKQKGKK", "T1 sequence (P07355 2-339 limits assumed)": "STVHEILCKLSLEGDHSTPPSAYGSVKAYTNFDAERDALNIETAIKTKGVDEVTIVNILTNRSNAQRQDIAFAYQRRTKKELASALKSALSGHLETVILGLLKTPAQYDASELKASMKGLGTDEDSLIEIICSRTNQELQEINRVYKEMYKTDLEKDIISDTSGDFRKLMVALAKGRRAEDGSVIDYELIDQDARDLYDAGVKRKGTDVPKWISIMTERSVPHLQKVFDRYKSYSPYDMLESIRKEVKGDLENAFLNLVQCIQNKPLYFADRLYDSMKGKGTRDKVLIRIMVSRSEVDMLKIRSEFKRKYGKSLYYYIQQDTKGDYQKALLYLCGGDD", "assay": "Immunoprecipitation of p11/AnxA2/SMARCA3 complex in HEK293 cells", "type": "binding", "settings": "in vitro immunoprecipitation with α-SMARCA3, HEK293 cells", "protocol": "1-4. Immunoprecipitation of p11/AnxA2/SMARCA3 Complex\nHEK293 cells (CRL-1573, ATCC) were transfected with a CMV-Cre plasmid, and 24 hours after transfection, transfected with an AAV vector expressing the control AcGFP1 or PASIP-AcGFP1 construct. Immunoprecipitation was performed with α-SMARCA3 antibodies (rabbit polyclonal antibodies prepared with immunized peptides). Immunoblotting was performed using the following antibodies according to a standard protocol: α-p11 (mouse monoclonal, 1:1000, BD Biosciences), α-p11 (goat polyclonal, 1:200, R&D Systems), α-SMARCA3 (goat polyclonal, 1:200, NOVUS), α-AnxA2 (mouse monoclonal, Santa Cruz Biotech.), α-GFP (goat polyclonal, Santa Cruz Biotech)."}, "[6]": {"system": "mice", "assay": "Novelty suppressed feeding test (NSF/NFS)", "type": "in vivo, mouse", "settings": "in s (unit assumed); for NSF test latency: CNO 0.3 mg/kg", "protocol": "For chronic drug administration, 2 to 5 mice were housed in each cage. Fluoxetine hydrochloride (Spectrum Chemicals, USA) was intraperitoneally injected (10 mg kg-1 day-1) daily for 3 weeks. The drug was prepared by being dissolved in dimethyl sulfoxide (50%), and diluted with saline. For a control, a drug-free vehicle solution (0.9% saline) was administered daily. For a Gi-DREADD mouse experiment, clozapine-N-oxide (CNO; Sigma-Aldrich, USA) was directly dissolved in a 0.9% saline solution. A dose of CNO was 0.3 mg/kg, and 2 hours before each behavioral test, 100 μl/10 g of a solution per body weight was intraperitoneally injected.\n(4) Novelty Suppressed Feeding Test (NSF)\nas §1"}, "[7]": {"system": "mice", "assay": "Tail suspension test (TST)", "type": "in vivo, mouse", "settings": "for inactivity (immobility) in TST: in s (unit assumed)", "procedure": "(5) Tail Suspension Test (TST) Mice were suspended by tails for 6 minutes. A test session was videotaped, and their immobility was scored using automated TST analysis software of Clever System (Reston, Va., USA). The immobility time during the last 4 minutes (excluding the initial 2 minutes) was calculated."}, "[8]": {"system": "newborn postmitotic cells (DCX)", "assay": "Doublecortin (DCX) immunostaining of immature neurons", "type": "in vivo, mouse", "settings": "chronic fluoxetine administration, control mice", "protocol": "1-7. Immunohistochemistry\nImmunostaining was carried out using the standard free-floating method. Sections were washed three times with PBS for 10 minutes each time, and incubated with 2% normal donkey serum, 0.2% bovine serum albumin and 0.3% Triton-X100. After blocking, the sections were incubated with primary antibodies diluted with a blocking buffer overnight at 4° C., the following primary antibodies were used: α-doublecortin (goat polyclonal, 1:200, Santa Cruz Biotech.), α-calretinin (mouse monoclonal, 1:500, SWANT), α-parvalbumin (rabbit polyclonal, 1:1000, SWANT), α-neuropeptide Y (rabbit polyclonal, 1:1000, Phoenix Pharmaceutical), α-GluR2/3 (rabbit polyclonal, 1:100, Millipore). After incubation for 24 hours, the sections were washed three times with PBS containing 0.2% Triton-X100 (PBS-T) for 10 minutes, and then incubated with Alexa-Fluor™-conjugated secondary antibodies (1:400, Life Technologies, USA) at room temperature for 3 hours. The sections were washed three times with PBS-T at room temperature for 10 minutes, and covered with a Prolong™ Gold, anti-fading mounting medium (Life Technologies, USA)."}}, "note": "Structures can show the parent of a compound that is named as a salt. No end group written: not given here.", "data": [{"compound": "PASIP-AcGFP1: p11/AnxA2/SMARCA3 complex inhibitory peptide-AcGFP1 fusion construct, expressed from a Cre-dependent AAV vector (GNGNGKVTFPKMKIPKFSGR; also: fused to AcGFP1)", "values": [{"measurement": "home cage feeding level", "setting": "[1]", "result": "did not have a significant influence"}, {"measurement": "BrdU+ proliferating cells", "setting": "[2]; PASIP-AcGFP1 mice (AAV, mossy cells), SAL", "result": "119±27"}, {"measurement": "BrdU+ proliferating cells", "setting": "[2]; PASIP-AcGFP1 mice (AAV, mossy cells), chronic FLX", "result": "129±13"}, {"measurement": "light/dark box test", "setting": "[3]", "result": "94±13"}, {"measurement": "firing rate of mossy cells", "setting": "[4]; mossy cells expressing construct (control AcGFP1 3.58±0.56 Hz)", "result": "0.64±0.10", "unit": "Hz"}, {"measurement": "resting membrane potential in mossy cells", "setting": "[4]; mossy cells expressing construct (control AcGFP1 −47.33±1.77 mV)", "result": "−54.33±1.32", "unit": "mV"}, {"measurement": "assembly of the p11/AnxA2/SMARCA3 complex", "setting": "[5]", "result": "able to block the assembly of the p11/AnxA2/SMARCA3 complex"}, {"measurement": "latency to feed", "setting": "[6]; PASIP-AcGFP1 mice, SAL", "result": "304±51"}, {"measurement": "latency to feed", "setting": "[6]; PASIP-AcGFP1 mice, chronic FLX", "result": "293±54"}, {"measurement": "effect of fluoxetine in tail-suspension test", "setting": "[7]; PASIP-AcGFP1 mice, chronic fluoxetine", "result": "reduced an effect caused by fluoxetine administration"}]}, {"compound": "CNCCC(Oc1ccc(C(F)(F)F)cc1)c1ccccc1", "note": "(stereo not shown) [FLX, Fluoxetine hydrochloride]", "values": [{"measurement": "home cage feeding level", "setting": "[1]", "result": "did not have a significant influence"}, {"measurement": "food intake after coming back to the home cage", "setting": "[1]; control and p11 / Smarca3 cKO mice, chronic SSRI", "result": "no change in food intake"}, {"measurement": "survival and differentiation of newborn neuronal progenitors (DCX expression)", "setting": "[8]", "result": "enhanced the survival of newborn neuronal progenitors and promoted differentiation into mature neurons"}, {"measurement": "number of BrdU+ proliferating cells in the subgranular zone", "setting": "[2]; Gi-DREADD mice, chronic FLX (SAL 172±27)", "result": "232±20"}, {"measurement": "number of BrdU+ proliferating cells in the subgranular zone", "setting": "[2]; control (mCherry) D2-Cre mice, chronic FLX (SAL 177±18)", "result": "337±37"}, {"measurement": "BrdU+ proliferating cells", "setting": "[2]; control mice, chronic fluoxetine (SAL 173±16)", "result": "290±43"}, {"measurement": "mossy cell activity (spontaneous firing rate)", "setting": "[4]; acute fluoxetine treatment", "result": "had no effect on mossy cell activity"}, {"measurement": "spontaneous firing rate of mossy cells", "setting": "[4]; chronic fluoxetine treatment (control 2.36±0.41 Hz)", "result": "4.19±0.92", "unit": "Hz"}, {"measurement": "NSF test latency", "setting": "[6]; Gi-DREADD mice, chronic FLX (SAL 450±36)", "result": "365±40"}, {"measurement": "latency to access a food pellet", "setting": "[6]; Smarca3f/f control mice (D2-Cre experiment), chronic FLX (SAL 257±47)", "result": "104±12"}, {"measurement": "latency to access a food pellet", "setting": "[6]; Smarca3f/f control mice (MC-Cre experiment), chronic FLX (SAL 338±20)", "result": "229±40"}, {"measurement": "latency to access a food pellet", "setting": "[6]; Smarca3f/f;D2-Cre conditional knockout mice, chronic FLX (SAL 192±15)", "result": "232±32"}, {"measurement": "latency to access a food pellet", "setting": "[6]; Smarca3f/f;MC-Cre conditional knockout mice, chronic FLX (SAL 405±88)", "result": "404±69"}, {"measurement": "NSF test latency", "setting": "[6]; control (mCherry) mice, chronic FLX (SAL 484±85)", "result": "238±40"}, {"measurement": "latency to feed", "setting": "[6]; control AcGFP1 mice, chronic fluoxetine (SAL 296±48)", "result": "147±22"}, {"measurement": "latency to access a food pellet", "setting": "[6]; p11f/f control mice, chronic FLX 10 mg/kg/day i.p. 3 weeks (SAL 351±38)", "result": "165±24"}, {"measurement": "latency to access a food pellet", "setting": "[6]; p11f/f;D2-Cre conditional knockout mice, chronic FLX (SAL 364±46)", "result": "296±58"}, {"measurement": "inactivity (immobility) in TST", "setting": "[7]; Gi-DREADD mice, chronic FLX (SAL 128±9)", "result": "129±10"}, {"measurement": "inactivity (immobility) in TST", "setting": "[7]; control (mCherry) mice, chronic FLX (SAL 141±9)", "result": "110±9"}]}, {"compound": "C[N+]1([O-])CCN(C2=Nc3cc(Cl)ccc3Nc3ccccc32)CC1", "note": "[CNO, clozapine-N-oxide]", "values": [{"measurement": "activity of mossy cells", "setting": "[4]; Gi-DREADD mice, mCherry-labeled mossy cells", "result": "silenced"}, {"measurement": "activity of mossy cells", "setting": "[4]; control mCherry mice", "result": "not in control mice"}]}]}
